In BigSolDB 2.1:

O=C1CCC(c2ccc(Cl)c(Cl)c2)c2ccccc21 (configuration not stated)
Details	solubility (mole fraction)
in DMF, 278.16 K	0.0335
in DMF, 283.37 K	0.0408
in DMF, 288.12 K	0.0487
in DMF, 293.13 K	0.059
in DMF, 298.17 K	0.0717
in DMF, 303.28 K	0.0881
in DMF, 308.28 K	0.106
in DMF, 313.32 K	0.129
in DMF, 318.27 K	0.155
in THF, 278.04 K	0.0699
in THF, 282.93 K	0.0823
in THF, 288.33 K	0.096
in THF, 293.28 K	0.109
in THF, 298.24 K	0.124
in THF, 302.94 K	0.14
in THF, 308.34 K	0.162
in THF, 313.52 K	0.187
in acetone, 282.13 K	0.0162
in acetone, 288.02 K	0.0217
in acetone, 292.83 K	0.0261
in acetone, 298.28 K	0.0321
in acetone, 303.23 K	0.0397
in acetone, 307.94 K	0.0498
in acetone, 313.74 K	0.0673
in acetone, 318.56 K	0.0871
in acetone, 323.57 K	0.114
in ethanol, 283.12 K	0.00171
in ethanol, 288.27 K	0.0021
in ethanol, 293.38 K	0.00252
in ethanol, 298.04 K	0.00303
in ethanol, 302.93 K	0.00376
in ethanol, 308.32 K	0.0049
in ethanol, 314.17 K	0.00667
in ethanol, 318.74 K	0.00852
in ethanol, 323.26 K	0.0108
in isopropanol, 278.12 K	0.000955
in isopropanol, 283.38 K	0.00128
in isopropanol, 288.33 K	0.00163
in isopropanol, 293.07 K	0.00209
in isopropanol, 298.33 K	0.00278
in isopropanol, 303.36 K	0.0037
in isopropanol, 308.46 K	0.00496
in isopropanol, 313.26 K	0.00649
in isopropanol, 318.54 K	0.00864
in methanol, 277.93 K	0.00087
in methanol, 283.06 K	0.00107
in methanol, 288.28 K	0.00141
in methanol, 293.42 K	0.00186
in methanol, 298.04 K	0.00235
in methanol, 302.77 K	0.00293
in methanol, 308.56 K	0.00372
in methanol, 313.53 K	0.00446
in methanol, 319.04 K	0.00533
in toluene, 278.18 K	0.0391
in toluene, 283.13 K	0.0461
in toluene, 288.28 K	0.0548
in toluene, 293.22 K	0.0649
in toluene, 298.12 K	0.0771
in toluene, 303.14 K	0.0924
in toluene, 308.46 K	0.112
in toluene, 313.43 K	0.135
in toluene, 318.34 K	0.161
